The target of one assay is T1, CK1α (Homo sapiens, UniProt P48729+Q96SW2).
T1 construct: CSNK1A1-HiBit KI HEK293(LgBit) Cells; host or cells: HEK293(LgBit) knock-in cells
Put plainly: HiBiT degradation assay, CK1α, Procedure A. Type of assay: cell-based. As for the experimental part: (§1) Compounds were spotted onto Cornin 384-Well, Cell Culture-Treated, Flat-Bottom, Low Flange Microplate (Fisher Scientific, Catalog #07-201-013) using a Tecan D300e digital dispenser. Ten-point dose response curves spanning from 10 μM to 0.005 μM with a 0.1% DMSO tolerance were used.
(§2) Cells were dissociated from tissue 182 cm^2 Tissue Culture Flask (CellTreat Catalog #229351) by washing the cells with PBS (Fisher Scientific Catalog #BP3994) followed by dissociation with Trypsin-EDTA (0.25%) (Thermo Scientific Catalog #25200056). Trysin was neutralized and cells were resuspended with DMEM+10% FBS. Cells were centrifuged for 5 minutes at 1200 RPMs. Cell culture media was aspirated off and cells were resuspended with DMEM+10% FBS. Cell density was determined using a Denovix CellDrop BF cell counter. Cell density was adjusted to 1×10^6 cells/ml. 40 μl of cells was added to compound treated tissue culture plates and incubated for six hours at 37° C. After six hours, cell culture plates were removed from tissue culture incubator and cooled to room temperature. 40 μl of Nano-GloHiBiT Lytic Detection Reagent (Promega, Catalog #N3040) was added to each well. Plates were placed on an orbital shaker (600 rpm) for 20 minutes. Luminescence was measured using an Envsion plate reader (Perkin Elmer). DC50 curves and Ymin were generated using a 4-parameter curve fit with GraphPad Prism software (Prism Corporation).
(§3) Results from the HiBiT assay (DC50 (nM) and Ymin (% remaining)) are shown below. All CK1α data was generated according to Procedure A. GSPT1 data for Examples 1-600, 603-620 and 703-705 was generated according to Procedure A. GSPT1 data for Examples 601, 621-702 and 706-735 was generated according to Procedure B.
(In general: The HiBiT peptide binds its large partner to form an active luciferase.)

The target in another assay is GSPT1 (Homo sapiens, UniProt P15170+Q96SW2). Put plainly: HiBiT degradation assay, GSPT1, Procedure A. Also on record: HiBit-GSPT1 KI HEK293(LgBit) Cells; host or cells: HEK293(LgBit) knock-in cells. It counts as cell-based. To be noted: six hours incubation. As for the experimental part: as §1, §2, §3
GSPT1, sequence (P15170 whole entry): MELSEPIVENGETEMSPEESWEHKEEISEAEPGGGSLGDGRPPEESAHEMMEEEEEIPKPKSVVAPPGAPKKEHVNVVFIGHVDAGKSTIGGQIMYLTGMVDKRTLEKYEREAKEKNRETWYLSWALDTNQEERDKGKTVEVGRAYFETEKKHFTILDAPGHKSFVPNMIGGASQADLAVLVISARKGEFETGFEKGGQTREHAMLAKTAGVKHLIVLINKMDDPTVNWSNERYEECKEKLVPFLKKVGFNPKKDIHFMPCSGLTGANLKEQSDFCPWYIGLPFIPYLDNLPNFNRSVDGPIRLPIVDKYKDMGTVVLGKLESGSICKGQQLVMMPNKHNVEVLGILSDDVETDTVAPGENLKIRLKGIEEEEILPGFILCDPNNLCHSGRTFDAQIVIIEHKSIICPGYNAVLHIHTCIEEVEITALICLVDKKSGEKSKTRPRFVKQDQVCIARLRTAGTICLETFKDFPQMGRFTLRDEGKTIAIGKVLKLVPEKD
GSPT1, sequence (Q96SW2 whole entry): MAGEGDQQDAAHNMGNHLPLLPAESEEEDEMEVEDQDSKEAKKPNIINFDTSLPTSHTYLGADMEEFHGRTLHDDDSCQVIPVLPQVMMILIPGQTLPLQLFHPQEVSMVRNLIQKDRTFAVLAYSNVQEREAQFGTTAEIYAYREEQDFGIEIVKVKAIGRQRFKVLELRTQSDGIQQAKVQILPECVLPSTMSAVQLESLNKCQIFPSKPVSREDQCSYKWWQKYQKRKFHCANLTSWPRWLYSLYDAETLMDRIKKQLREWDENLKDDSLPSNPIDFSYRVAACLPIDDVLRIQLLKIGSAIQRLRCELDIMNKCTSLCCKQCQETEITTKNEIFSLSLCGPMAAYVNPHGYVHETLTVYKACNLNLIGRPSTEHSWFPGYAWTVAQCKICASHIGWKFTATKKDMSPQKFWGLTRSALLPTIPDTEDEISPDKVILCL
GSPT1, sequence (Q16531 whole entry partner): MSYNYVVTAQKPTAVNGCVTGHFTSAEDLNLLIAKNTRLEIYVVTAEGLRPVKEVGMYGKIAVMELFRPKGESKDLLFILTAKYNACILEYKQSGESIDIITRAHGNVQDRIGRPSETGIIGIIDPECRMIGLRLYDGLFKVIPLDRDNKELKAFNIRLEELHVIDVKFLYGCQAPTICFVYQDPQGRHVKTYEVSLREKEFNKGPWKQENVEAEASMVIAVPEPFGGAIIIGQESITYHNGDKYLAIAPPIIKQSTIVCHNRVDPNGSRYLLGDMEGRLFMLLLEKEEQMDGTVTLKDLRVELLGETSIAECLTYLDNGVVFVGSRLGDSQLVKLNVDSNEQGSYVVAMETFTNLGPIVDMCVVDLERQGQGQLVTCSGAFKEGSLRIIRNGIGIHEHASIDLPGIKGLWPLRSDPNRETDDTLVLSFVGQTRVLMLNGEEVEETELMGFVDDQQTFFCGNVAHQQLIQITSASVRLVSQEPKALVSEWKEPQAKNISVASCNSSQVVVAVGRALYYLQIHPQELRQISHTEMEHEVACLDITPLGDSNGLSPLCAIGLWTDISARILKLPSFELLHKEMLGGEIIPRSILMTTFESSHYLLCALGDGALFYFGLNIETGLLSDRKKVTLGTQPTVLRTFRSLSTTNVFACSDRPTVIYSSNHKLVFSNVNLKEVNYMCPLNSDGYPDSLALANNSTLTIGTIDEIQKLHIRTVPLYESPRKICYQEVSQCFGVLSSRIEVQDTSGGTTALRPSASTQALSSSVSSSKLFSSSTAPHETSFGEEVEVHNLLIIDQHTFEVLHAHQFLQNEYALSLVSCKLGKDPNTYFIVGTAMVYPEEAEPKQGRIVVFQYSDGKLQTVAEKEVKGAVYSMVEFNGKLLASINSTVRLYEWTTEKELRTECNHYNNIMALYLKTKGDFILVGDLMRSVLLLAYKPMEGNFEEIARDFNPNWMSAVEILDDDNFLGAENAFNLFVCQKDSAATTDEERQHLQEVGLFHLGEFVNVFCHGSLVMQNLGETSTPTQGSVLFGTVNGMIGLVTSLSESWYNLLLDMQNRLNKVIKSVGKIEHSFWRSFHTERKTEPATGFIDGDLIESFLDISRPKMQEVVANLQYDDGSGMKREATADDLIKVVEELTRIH

T1 sequence (P48729 whole entry): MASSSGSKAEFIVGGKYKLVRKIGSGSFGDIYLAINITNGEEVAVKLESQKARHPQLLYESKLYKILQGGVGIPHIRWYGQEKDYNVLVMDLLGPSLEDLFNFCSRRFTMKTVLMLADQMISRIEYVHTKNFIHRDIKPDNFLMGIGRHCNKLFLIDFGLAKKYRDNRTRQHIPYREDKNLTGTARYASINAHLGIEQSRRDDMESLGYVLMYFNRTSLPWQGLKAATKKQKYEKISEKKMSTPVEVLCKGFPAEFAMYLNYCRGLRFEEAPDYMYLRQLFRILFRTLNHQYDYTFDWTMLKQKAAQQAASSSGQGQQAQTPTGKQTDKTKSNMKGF
T1 sequence (Q96SW2 whole entry): as the sequence (Q96SW2 whole entry) above
T1 sequence (Q16531 whole entry partner): as the sequence (Q16531 whole entry partner) above

By DC50 is commonly meant the midpoint of the concentration-degradation curve. Low values mean degradation at low concentration, high ones degradation only at high concentration. For the compound `Cn1ncc(-c2ccc3c(c2)CN(C2CCC(=O)NC2=O)C3=O)c1-c1ccccc1` (stereo not drawn) [Example 1, 3-(5-(1-Methyl-5-phenyl-1H-pyrazol-4-yl)-1-oxoisoindolin-2-yl)piperidine-2,6-dione], on CK1α (six hours incubation), the “CK1α Ymin” value is “D (D = >10- 25% remaining)” and the DC50 is less than 25 nM. Further, on GSPT1, the DC50 is no less than 25 nM and the “GSPT1 Ymin” value is recorded as “F (F = >75-100% remaining)”.
Turning to `Cn1cnc(-c2ccc3c(c2)CN(C2CCC(=O)NC2=O)C3=O)c1-c1ccccc1` (stereo not drawn) [Example 2, 3-(5-(1-Methyl-5-phenyl-1H-imidazol-4-yl)-1-oxoisoindolin-2-yl)piperidine-2,6-dione], at CK1α (six hours incubation), the “CK1α Ymin” value is given as “C (C = 0-10% remaining)” and the DC50 was less than 25 nM. At GSPT1, the DC50 is less than 25 nM and the “GSPT1 Ymin” value was “E (E = >25-75% remaining)”.
As for `Cn1cc(-c2ccc3c(c2)CN(C2CCC(=O)NC2=O)C3=O)c(-c2ccccc2)n1` (stereo not drawn) [Example 3, 3-(5-(1-Methyl-3-phenyl-1H-pyrazol-4-yl)-1-oxoisoindolin-2-yl) piperidine-2,6-dione], at CK1α (six hours incubation), the “CK1α Ymin” value is reported as “E (E = >25-75% remaining)” and the DC50 was less than 25 nM. On GSPT1, the DC50 is no less than 25 nM and the “GSPT1 Ymin” value is listed as “F (F = >75-100% remaining)”.
On the same counts, the results for `O=C1CCC(N2Cc3cc(-c4cscc4-c4ccccc4)ccc3C2=O)C(=O)N1` (stereo not drawn) [Example 4, 3-(1-Oxo-5-(4-phenylthiophen-3-yl)isoindolin-2-yl)piperidine-2,6-dione] are “E (E = >25-75% remaining)”, no less than 25 nM, no less than 25 nM and “F (F = >75-100% remaining)”.
Taken in the same sequence, the figures for `O=C1CCC(N2Cc3cc(-c4c[nH]nc4-c4ccccc4)ccc3C2=O)C(=O)N1` (stereo not drawn) [Example 5, 3-(1-Oxo-5-(3-phenyl-1H-pyrazol-4-yl)isoindolin-2-yl) piperidine-2,6-dione] were “D (D = >10- 25% remaining)”, less than 25 nM, no less than 25 nM and “F (F = >75-100% remaining)”.
On to `O=C1CCC(N2Cc3cc(-c4ccnn4-c4ccccc4)ccc3C2=O)C(=O)N1` (stereo not drawn) [Example 6, 3-(1-oxo-5-(1-phenyl-1H-pyrazol-5-yl)isoindolin-2-yl)piperidine-2,6-dione], for which, at CK1α (six hours incubation), the “CK1α Ymin” value was “E (E = >25-75% remaining)” and the DC50 was no less than 25 nM. Moreover, at GSPT1, the DC50 is no less than 25 nM and the “GSPT1 Ymin” value is listed as “F (F = >75-100% remaining)”.
Consider `Cn1ncc(-c2ccc3c(c2)CN(C2CCC(=O)NC2=O)C3=O)c1-c1ccc(F)cc1` (stereo not drawn) [Example 8, 3-(5-(5-(4-fluorophenyl)-1-methyl-1H-pyrazol-4-yl)-1-oxoisoindolin-2-yl)piperidine-2,6-dione], for which, at CK1α (six hours incubation), the “CK1α Ymin” value was “E (E = >25-75% remaining)” and the DC50 is less than 25 nM. Besides, at GSPT1, the DC50 is no less than 25 nM and the “GSPT1 Ymin” value is “F (F = >75-100% remaining)”.
Taken in the same sequence, the figures for `O=C1CCC(N2Cc3cc(-c4cnn(-c5ccccc5)c4)ccc3C2=O)C(=O)N1` (stereo not drawn) [Example 9, 3-(1-Oxo-5-(1-phenyl-1H-pyrazol-4-yl)isoindolin-2-yl)piperidine-2,6-dione] were “E (E = >25-75% remaining)”, no less than 25 nM, no less than 25 nM and “E (E = >25-75% remaining)”.
On the same counts, the results for `Cn1cnc(-c2ccc3c(c2)CN(C2CCC(=O)NC2=O)C3=O)c1-c1ccc(F)cc1` (stereo not drawn) [Example 10, 3-(5-(5-(4-Fluorophenyl)-1-methyl-1H-imidazol-4-yl)-1-oxoisoindolin-2-yl)piperidine-2,6-dione] are “C (C = 0-10% remaining)”, less than 25 nM, no less than 25 nM and “E (E = >25-75% remaining)”.
On the same counts, the results for `Cc1[nH]nc(-c2ccc3c(c2)CN(C2CCC(=O)NC2=O)C3=O)c1-c1ccccc1` (stereo not drawn) [Example 11] are “C (C = 0-10% remaining)”, less than 25 nM, less than 25 nM and “D (D = >10- 25% remaining)”.
In the case of `O=C1CCC(N2Cc3cc(-c4nc[nH]c4-c4ccccc4)ccc3C2=O)C(=O)N1` (stereo not drawn) [Example 13, 3-(1-Oxo-5-(5-phenyl-1H-imidazol-4-yl)isoindolin-2-yl) piperidine-2,6-dione], at CK1α (six hours incubation), the “CK1α Ymin” value is on record as “C (C = 0-10% remaining)” and the DC50 was less than 25 nM. Further, on GSPT1, the DC50 is less than 25 nM and the “GSPT1 Ymin” value is “E (E = >25-75% remaining)”.
`O=C1CCC(N2Cc3cc(-c4ncoc4-c4ccccc4)ccc3C2=O)C(=O)N1` (stereo not drawn) [Example 15, 3-(1-oxo-5-(5-phenyloxazol-4-yl)isoindolin-2-yl)piperidine-2,6-dione]: on CK1α (six hours incubation), the “CK1α Ymin” value is on record as “C (C = 0-10% remaining)” and the DC50 is less than 25 nM. At GSPT1, the DC50 is less than 25 nM and the “GSPT1 Ymin” value was “E (E = >25-75% remaining)”.
For `Cn1cnc(-c2cc3c(s2)C(=O)N(C2CCC(=O)NC2=O)C3)c1-c1ccccc1` (stereo not drawn) [Example 16, 3-(2-(1-methyl-5-phenyl-1H-imidazol-4-yl)-6-oxo-4,6-dihydro-5H-thieno[2,3-c]pyrrol-5-yl)piperidine-2,6-dione], at CK1α (six hours incubation), the “CK1α Ymin” value was “E (E = >25-75% remaining)” and the DC50 was no less than 25 nM. In addition, on GSPT1, the DC50 is no less than 25 nM and the “GSPT1 Ymin” value is on record as “F (F = >75-100% remaining)”.
As for `Cc1nn(C)c(-c2ccc3c(c2)CN(C2CCC(=O)NC2=O)C3=O)c1-c1ccccc1` (stereo not drawn) [Example 18, 3-(5-(1,3-Dimethyl-4-phenyl-1H-pyrazol-5-yl)-1-oxoisoindolin-2-yl)piperidine-2,6-dione], at CK1α (six hours incubation), the “CK1α Ymin” value is “E (E = >25-75% remaining)” and the DC50 was no less than 25 nM. At GSPT1, the DC50 was no less than 25 nM and the “GSPT1 Ymin” value was “E (E = >25-75% remaining)”.
For `Cn1cnc(-c2ccn3c(=O)n(C4CCC(=O)NC4=O)nc3c2)c1-c1ccccc1` (stereo not drawn) [Example 20, 3-(7-(1-Methyl-5-phenyl-1H-imidazol-4-yl)-3-oxo-[1,2,4]triazolo[4,3-a]pyridin-2 (3H)-yl)piperidine-2,6-dione], on CK1α (six hours incubation), the “CK1α Ymin” value is reported as “E (E = >25-75% remaining)” and the DC50 was no less than 25 nM. For the same compound, on GSPT1, the DC50 is no less than 25 nM and the “GSPT1 Ymin” value is “E (E = >25-75% remaining)”.
As to `Cn1cnc(-c2ccccc2)c1-c1ccc2c(c1)CN(C1CCC(=O)NC1=O)C2=O` (stereo not drawn) [Example 21, 3-(5-(1-Methyl-4-phenyl-1H-imidazol-5-yl)-1-oxoisoindolin-2-yl)piperidine-2,6-dione], at CK1α (six hours incubation), the “CK1α Ymin” value is reported as “E (E = >25-75% remaining)” and the DC50 was no less than 25 nM. At GSPT1, the DC50 was no less than 25 nM and the “GSPT1 Ymin” value was “C (C = 0-10% remaining)”.
Consider `Cn1nc(-c2ccc3c(c2)CN(C2CCC(=O)NC2=O)C3=O)cc1-c1ccc(C(F)(F)F)cc1` (stereo not drawn) [Example 495, 3-(5-(1-methyl-5-(4-(trifluoromethyl)phenyl)-1H-pyrazol-3-yl)-1-oxoisoindolin-2-yl)piperidine-2,6-dione], for which, at CK1α (six hours), the “CK1α Ymin” value is listed as “C (C = 0-10% remaining)” and the DC50 is less than 25 nM.

For the origin of these results see patent US20240158370A1, “CK1 alpha AND DUAL CK1 alpha / GSPT1 DEGRADING COMPOUNDS” (Innovo Therapeutics, Inc., priority 2022, published 2024).
